# Results as given in PMC6792352, “Limited Chemical Structural Diversity Found to Modulate Thyroid Hormone Receptor in the Tox21 Chemical Library” (Environmental Health Perspectives, 2019).
# Where a name gives a salt, the structure may show the parent alone.
# Test: in vitro
# Conditions: rat, gh3-tre-luc cells, AC50 (uM) modified / 1000
row,Structure (SMILES),CC50 at 24 h [µM]
1,"CCN(CC)CCO [N,N-Diethylethanolamine]",> 100
2,O=C(O)[C@@H]1CCCN1 [Proline],> 50
3,CN1CCN(Cc2cc(-c3ccc4[nH]c(=O)oc4c3)co2)[C@@H](c2ccc(F)cc2)C1 [AVE8488],24.8
4,Cn1cnc2c(F)c(Nc3ccc(Br)cc3Cl)c(C(=O)NOCCO)cc21 [Selumetinib],> 50
5,COc1ccccc1C=CC=O [2-Methoxycinnamaldehyde],77.5
6,CC(=O)[C@@]1(O)CC[C@H]2[C@@H]3C=C(Cl)C4=CC(=O)[C@@H]5C[C@@H]5[C@]4(C)[C@H]3CC[C@@]21C [Cyproterone],> 50
7,"O=C(O)COc1cc(Cl)c(Cl)cc1Cl [2,4,5-Trichlorophenoxyacetic acid]",> 90
8,CC(=O)NO [Acetohydroxamic acid],> 50
9,CC(COC(C)(C)C)OCCCO (centres unmarked) [Di(propylene glycol) tert-butyl ether],> 90
10,C=C1C(=O)O[C@H]2[C@H]1CC/C(C)=C/CC[C@@]1(C)O[C@@H]21 [Parthenolide],13.8
11,O=[N+]([O-])c1ccccc1 [Nitrobenzene],> 90
12,OCc1c[nH]c2ccccc12 [Indole-3-carbinol],> 90
13,CCCCOCC1CO1 (centres unmarked) [Butyl glycidyl ether],> 90
14,C=C(C)C(=O)OCCO [2-Hydroxyethyl methacrylate],> 90
15,CC(=O)OC/C=C/c1ccccc1 [3-Phenylprop-2-en-1-yl acetate],> 90
16,C=CC(=C)CC/C=C(\C)CC/C=C(/C)C=O [Orange terpenes],42.9
17,OC[C@H]1O[C@@H](n2cnc3c(S)ncnc32)[C@H](O)[C@@H]1O [Thioinosine],> 50

row,Structure (SMILES),CC50 at 24 h [µM]
1,O=[N+]([O-])c1ccc(/C=N\O)o1 [Nifuroxime],> 50
2,O=C(CCCN1CCC(O)(c2cccc(C(F)(F)F)c2)CC1)c1ccc(F)cc1 [Trifluperidol hydrochloride],24
3,CCCCCC/C=C/C=O [(E)-2-Nonenal],> 90
4,Cc1c(Nc2ncccc2C(=O)O)cccc1C(F)(F)F [Flunixin meglumine],3.99
5,O=NN1CCCCCC1 [N-Nitrosohexamethyleneimine],> 90
6,CCCN1CCC[C@@H]2Cc3n[nH]cc3C[C@H]21 [(-)-Quinpirole hydrochloride],> 50
7,CC1CCCNC1 (centres unmarked) [3-Methylpiperidine],> 90
8,CCNC(=O)NCCCOc1cccc(CN2CCCCC2)c1 [Dalcotidine],> 50
9,C=Cc1ccccn1 [2-Vinylpyridine],> 90
10,N[C@@H](Cc1c[nH]c2ccccc12)C(=O)O [l-Tryptophan],> 90
11,COC(=O)c1ccccc1Cl [Methyl 2-chlorobenzoate],> 90
12,C=CC[N+](C)(C)CC=C [Diallyldimethylammonium chloride],> 90
13,CC(=O)/N=c1/sc(S(N)(=O)=O)nn1C [Methazolamide],> 20
14,O=[N+]([O-])c1ccc(O)c2ncccc12 [Nitroxoline],4.94
15,NS(=O)(=O)c1cc2c(cc1Cl)NC(CC1CCCC1)NS2(=O)=O (centres unmarked) [Cyclopenthiazide],> 20
16,"CCCC1C(CC)=CC(CC)=CN1c1ccccc1 (centres unmarked) [3,5-Diethyl-1-phenyl-2-propyl-1,2-dihydropyridine]",> 90

# Same assay, conditions: rat, gh3-tre-luc cells, AC50 (uM) modified / 1000, Tox21_110001=Tox21_111700; viability, 1 nM T3 present, 24 h
row,Structure (SMILES),CC50 at 24 h [µM]
1,O=C(Nc1ccc(Br)cc1)c1cc(Br)cc(Br)c1O [Tribromsalan],14.2

# Same assay, conditions: rat, gh3-tre-luc cells, AC50 (uM) modified / 1000, Tox21_110001=Tox21_112618; viability, 1 nM T3 present, 24 h
row,Structure (SMILES),CC50 at 24 h [µM]
1,CCC(N)Cc1c[nH]c2ccccc12 (centres unmarked) [Etryptamine],> 50

# Same assay, conditions: rat, gh3-tre-luc cells, AC50 (uM) modified / 1000, Tox21_110001=Tox21_200666; viability, 1 nM T3 present, 24 h
row,Structure (SMILES),CC50 at 24 h [µM]
1,NNC(=O)c1cccnc1 [Nicotinic acid hydrazide],> 90

# Same assay, conditions: rat, gh3-tre-luc cells, AC50 (uM) modified / 1000, Tox21_110001=Tox21_200686; viability, 1 nM T3 present, 24 h
row,Structure (SMILES),CC50 at 24 h [µM]
1,COc1ccc2c(c1OC)C(=O)O[C@@H]2[C@H]1c2cc3c(cc2CCN1C)OCO3 [Hydrastine],6.92

# Same assay, conditions: rat, gh3-tre-luc cells, AC50 (uM) modified / 1000, Tox21_110001=Tox21_200855; viability, 1 nM T3 present, 24 h
row,Structure (SMILES),CC50 at 24 h [µM]
1,CC(C)OS(C)(=O)=O [Isopropyl methanesulfonate],> 90

# Same assay, conditions: rat, gh3-tre-luc cells, AC50 (uM) modified / 1000, Tox21_110001=Tox21_200984; viability, 1 nM T3 present, 24 h
row,Structure (SMILES),CC50 at 24 h [µM]
1,C=CC=O [Acrolein],> 90

# Same assay, conditions: rat, gh3-tre-luc cells, AC50 (uM) modified / 1000, Tox21_110001=Tox21_202442; viability, 1 nM T3 present, 24 h
row,Structure (SMILES),CC50 at 24 h [µM]
1,O=C(Nc1ccc(Br)cc1)c1cc(Br)cc(Br)c1O [Tribromsalan],5.41

# Same assay, conditions: rat, gh3-tre-luc cells, AC50 (uM) modified / 1000, Tox21_110001=Tox21_303223; viability, 1 nM T3 present, 24 h
row,Structure (SMILES),CC50 at 24 h [µM]
1,O=C(Nc1ccc(Br)cc1)c1cc(Br)cc(Br)c1O [Tribromsalan],6.43
